The results in this text go back to PubChem BioAssay (NCI).

Some test systems named below: M14 melanoma; MDA-N; NCI-H460 lung; LOX IMVI melanoma; NCI-H226 lung; HCT-116 colon; SK-MEL-5 melanoma; HL-60(TB) leukemia; SF-539 CNS; SK-OV-3 ovarian; SNB-19 CNS; SK-MEL-28 melanoma; MCF7 breast; RPMI-8226 leukemia.
Experiment in all cases: growth of human tumour cells (NCI), 48 h

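Cells were grown in 96-well plates and exposed to each compound for 48 hours at five concentrations; endpoints were interpolated linearly between bracketing concentrations, or set to the highest concentration if not reached. TGI: concentration producing complete growth inhibition.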 A value given as a limit tells only on which side of the number the result lay.

Turning to `CCNC(=S)N/N=C/c1ccccn1`, the TGI was 32.7 µM with M14 melanoma; more than 100 µM in the experiment on MDA-N; 27.8 µM in the experiment on NCI-H460 lung; more than 100 µM in the experiment on LOX IMVI melanoma; 22 µM in the experiment with NCI-H226 lung; 73.7 µM with HCT-116 colon. For the same compound, the TGI was 19.9 µM with SK-MEL-5 melanoma; 23.2 µM in the experiment with HL-60(TB) leukemia; 29.7 µM in the experiment on SF-539 CNS; more than 100 µM in the experiment with SK-OV-3 ovarian; more than 100 µM in the experiment with SNB-19 CNS; more than 100 µM with SK-MEL-28 melanoma.

Turning to `COC(=O)c1sc2ncc3c(c2c1N)CC(C)CC3` (configuration not stated), the TGI with M14 melanoma, in the experiment on MDA-N, in the experiment on NCI-H460 lung, in the experiment on MCF7 breast, in the experiment on LOX IMVI melanoma and in the experiment on NCI-H226 lung was more than 100 µM each time. Moreover, the TGI in the experiment with HCT-116 colon, with RPMI-8226 leukemia, in the experiment with SK-MEL-5 melanoma, with SF-539 CNS, with SK-OV-3 ovarian and in the experiment on SNB-19 CNS was more than 100 µM each time. The same compound gave a TGI with SK-MEL-28 melanoma of more than 100 µM.

Turning to `COC1OC2COC(C)(C)OC2C2OC(C)(C)OC12` (configuration not stated), the TGI with M14 melanoma is more than 100 µM; with MDA-N, more than 100 µM; with MCF7 breast, more than 100 µM; with NCI-H226 lung, 76.2 µM; with HCT-116 colon, more than 100 µM; with RPMI-8226 leukemia, 93.6 µM. Moreover, the TGI in the experiment on SK-MEL-5 melanoma is more than 100 µM; with SK-OV-3 ovarian it was more than 100 µM; in the experiment on SNB-19 CNS, 54.4 µM; with SK-MEL-28 melanoma, more than 100 µM.

Take `CCOC(=O)c1[nH]c2nc(SC)nc(NC)c2c1N`: the TGI in the experiment with M14 melanoma, in the experiment on MDA-N, in the experiment with NCI-H460 lung, in the experiment with LOX IMVI melanoma, in the experiment on NCI-H226 lung and in the experiment with HCT-116 colon was more than 100 µM throughout. The TGI in the experiment on RPMI-8226 leukemia, with SK-MEL-5 melanoma, in the experiment on SK-OV-3 ovarian, in the experiment on SNB-19 CNS and with SK-MEL-28 melanoma was more than 100 µM each time.

For the compound `Brc1ccc2c(c1)-c1nc3c(cc1CC2)CCc1ccc(Br)cc1-3`, the TGI in the experiment with M14 melanoma, with MDA-N, in the experiment with NCI-H460 lung, in the experiment on MCF7 breast, with LOX IMVI melanoma and in the experiment with NCI-H226 lung was more than 100 µM in each case. The TGI with HCT-116 colon, in the experiment with RPMI-8226 leukemia, with SK-MEL-5 melanoma, with SK-OV-3 ovarian, in the experiment with SNB-19 CNS and in the experiment on SK-MEL-28 melanoma was more than 100 µM throughout.

As to `Cc1ncc([N+](=O)[O-])n1CCNC(=O)CCCCn1ccnc1[N+](=O)[O-]`, the TGI in the experiment with M14 melanoma, with MDA-N, in the experiment on NCI-H460 lung, in the experiment with MCF7 breast, in the experiment on NCI-H226 lung and in the experiment with HCT-116 colon was more than 100 µM each time. Also, the TGI in the experiment on SK-MEL-5 melanoma, in the experiment on HL-60(TB) leukemia, with SF-539 CNS, with SK-OV-3 ovarian and in the experiment on SNB-19 CNS was more than 100 µM each time.

For the compound `Cc1cccc(NC(Nc2cccc(C)c2)=C(C(Cl)=C(Cl)Cl)[N+](=O)[O-])c1`, the TGI in the experiment on M14 melanoma is more than 52 µM; in the experiment on MDA-N it was more than 35.1 µM; with NCI-H460 lung, more than 62.5 µM; in the experiment on MCF7 breast, more than 100 µM; in the experiment with LOX IMVI melanoma, 28.7 µM; in the experiment on NCI-H226 lung, 22.5 µM. For the same compound, the TGI in the experiment on HCT-116 colon was more than 46.4 µM; with RPMI-8226 leukemia, more than 100 µM; with SK-MEL-5 melanoma, 19.6 µM; in the experiment with SF-539 CNS it was 23.4 µM; in the experiment on SK-OV-3 ovarian, more than 100 µM; with SNB-19 CNS, more than 63 µM. In addition, in the experiment on SK-MEL-28 melanoma, the TGI amounted to 41.2 µM.

As for `COC(=O)C1=C(C)N2[C@H](C(=O)O)CS[C@@]2(C)[C@H](C(=O)OC)[C@H]1c1cccc([N+](=O)[O-])c1`, the TGI with M14 melanoma, in the experiment with MDA-N, with NCI-H460 lung, in the experiment on MCF7 breast, with NCI-H226 lung and with HCT-116 colon was more than 100 µM in each case. The TGI with RPMI-8226 leukemia, in the experiment with SK-MEL-5 melanoma, in the experiment with SF-539 CNS, with SK-OV-3 ovarian, with SNB-19 CNS and in the experiment with SK-MEL-28 melanoma was more than 100 µM in each case.

Take `CC1=C(C(=O)NNC(=O)CC#N)CC(C(=O)NNC(=O)CC#N)=C(C)N1`: the TGI in the experiment on M14 melanoma, in the experiment with MDA-N, in the experiment with NCI-H460 lung, in the experiment on MCF7 breast, in the experiment on LOX IMVI melanoma and in the experiment with NCI-H226 lung was more than 100 µM each time. In addition, the TGI in the experiment on HCT-116 colon, in the experiment on SK-MEL-5 melanoma, with HL-60(TB) leukemia, in the experiment with SF-539 CNS, in the experiment on SK-OV-3 ovarian and with SNB-19 CNS was more than 100 µM throughout. In the experiment on SK-MEL-28 melanoma, the TGI was more than 100 µM.

For the compound `C/C(=N\Nc1nc2ccccc2s1)c1cccnn1`, the TGI in the experiment on M14 melanoma was 88.7 µM; in the experiment with MDA-N, more than 100 µM; in the experiment with NCI-H460 lung, 15.1 µM; in the experiment with MCF7 breast it was more than 100 µM; in the experiment on NCI-H226 lung, 59.3 µM; in the experiment on HCT-116 colon, 25.5 µM. For the same compound, the TGI in the experiment on RPMI-8226 leukemia is more than 100 µM; in the experiment on SK-MEL-5 melanoma, more than 100 µM; in the experiment with SF-539 CNS, 17.7 µM; in the experiment on SK-OV-3 ovarian, 52.3 µM; in the experiment on SNB-19 CNS, more than 100 µM; in the experiment on SK-MEL-28 melanoma, more than 100 µM.

Take `Clc1cccc(C2ON=C(c3ccccc3)N2C23CC4CC(CC(C4)C2)C3)c1Cl` (configuration not stated): the TGI in the experiment with M14 melanoma, in the experiment on MDA-N, in the experiment with NCI-H460 lung, in the experiment on MCF7 breast, in the experiment on LOX IMVI melanoma and with NCI-H226 lung was more than 10 µM in each case. In addition, the TGI with HCT-116 colon, in the experiment with RPMI-8226 leukemia, in the experiment on SK-MEL-5 melanoma, in the experiment with SF-539 CNS, in the experiment on SK-OV-3 ovarian and in the experiment on SNB-19 CNS was more than 10 µM throughout. This compound also had a TGI with SK-MEL-28 melanoma of more than 10 µM.
